ChEMBL document CHEMBL1149856, “Insulinomimetic effect of kaempferol 3-neohesperidoside on the rat soleus muscle” (2008)
Active and inactive are the calls of the source. The calls are words filed in the database; no cut-off is given here.

Assays:
Soleus muscle [1] = test: Inhibition of 14C-glucose uptake in Wistar rat soleus muscle at 1 nM in presence of RO318220; assay type: functional, tissue-based
[2] = Stimulation of 14C-glucose uptake in Wistar rat soleus muscle at 100 nM
Soleus muscle [3] = test: Inhibition of 14C-glucose uptake in Wistar rat soleus muscle at 1 nM in presence of LY-294002; assay type: functional, tissue-based
Rattus norvegicus = test: Increase in glycogen level in diabetic Wistar rat soleus muscle at 100 mg/kg after 24 hrs; assay type: functional
[4] = Stimulation of 14C-glucose uptake in Wistar rat soleus muscle at 1 nM
Soleus muscle [5] = test: Stimulation of 14C-glucose uptake in Wistar rat soleus muscle at 1 nM in presence of cycloheximide; assay type: functional, tissue-based
Soleus muscle [6] = test: Stimulation of 14C-glucose uptake in Wistar rat soleus muscle at 1 nM in presence of PD-98059; assay type: functional, tissue-based

In the case of `C[C@H]1O[C@H](O[C@H]2[C@H](Oc3c(-c4ccc(O)cc4)oc4cc(O)cc(O)c4c3=O)O[C@H](CO)[C@@H](O)[C@@H]2O)[C@@H](O)[C@@H](O)[C@@H]1O`, the Activity (Soleus muscle [1]) was “Active”, the Activity [2] was 21% and the Activity (Soleus muscle [3]) was “Active”. The Activity (Rattus norvegicus) was 380%, the Activity [4] was 35% and the Activity (Soleus muscle [5]) was “Active”. The Activity (Soleus muscle [6]) was “Active”.
